Assay results as given in patent US5399487A, “6-peptidylamino-1-naphthalenesulfonamides useful as fluorogenic proteolytic enzyme substrates” (Haematologic Technologies, Inc., priority 1993, dated 1995).

Key:
Format in all cases: biochemical
[1] = target: tissue plasminogen activator (t-PA) (Homo sapiens, UniProt P00750); assay: Fluorogenic enzyme assay (Example 5); conditions: substrate 1 μM; for hydrolysis, t-PA (symbol N.D.): after 24 hrs, enzyme 100 nM; for TIME TO 10% HYDROLYSIS (HOURS), t-PA: 100 nM enzyme
Experimental: (§1) Enzyme assays (except factor VIIa assays, see below) were conducted in 20 mM Tris, 150 mM NaCl, pH 7.4 (TBS) at room temperature (22° C.). The final volume for all reaction mixtures was 2.0 ml. Fluorogenic substrates were dissolved in DMSO to a stock concentration of 10 mM. The 10 mM stock solution was diluted in TBS to the final working concentration prior to all assays. Enzyme was added to mixtures containing buffer components and substrate and the initial rate of substrate hydrolysis was measured as the change in fluorescent intensity over time, corresponding to the generation of the particular 6-amino-1-naphthalenesulfonamide fluorophore from the provided substrate. Quantitation of substrate hydrolysis was accomplished by establishing a standard curve from the appropriate fluorescent moiety. Fluorescence was monitored (continuously or discontinuously) using a Perkin Elmer fluorescence spectrophotometer, model MPF-44A, equipped with a standard chart recorder. The fluorophore was detected using monochrometers set at an excitation wavelength of 352 nm and an emission wavelength of 470 nm. Light scattering artifacts were minimized using a 399 nm cut off filter in the emission light beam.
(§2) The kinetic constants of substrate hydrolysis were determined using the non-linear least squares regression analysis program ENZFITTER (Cambridge, UK). This program was used to iteratively fit initial rates of substrate hydrolysis to the Michaelis-Menten equation and the kinetic constants of substrate hydrolysis (Km) and (kcat) were calculated.

[2] = target: urokinase (u-PA) (Homo sapiens, UniProt P00749); assay: Fluorogenic enzyme assay (Example 5); conditions: substrate 1 μM; for TIME TO 10% HYDROLYSIS (HOURS), u-PA: 100 nM enzyme
Experimental: as §1, §2

[3] = target: plasmin (Plm) (Homo sapiens, UniProt P00747); assay: Fluorogenic enzyme assay (Example 5); conditions: substrate 1 μM; for Time (min) for 5% hydrolysis, Plm: footnote b, enzyme 100 nM; for TIME TO 10% HYDROLYSIS (HOURS), Plm: 10 nM enzyme
Experimental: as §1, §2

[4] = target: T1, thrombin (IIa) (Homo sapiens, UniProt P00734); assay: Fluorogenic enzyme assay (Example 5); parameters: key to Hydrolysis kinetic constants, IIa (symbol b): Slow substrate hydrolysis, no kinetic constants calculated; conditions: for Time (min) for 10% hydrolysis, IIa: enzyme 100 nM; for Time (min) for 10% hydrolysis, IIa / TIME TO 10% HYDROLYSIS (HOURS), IIa: substrate 1 μM
T1 construct: 0.5 nM human thrombin (IIa)
Experimental: as §1, §2

[5] = target: activated protein C (APC) (Homo sapiens, UniProt P04070); assay: Fluorogenic enzyme assay (Example 5); parameters: key to Hydrolysis kinetic constants, APC (symbol b): Slow substrate hydrolysis, no kinetic constants calculated; key to Kinetic constants, APC (symbol b): slow substrate hydrolysis, no kinetic constants calculated; conditions: for Time (min) for 10% hydrolysis, APC: enzyme 100 nM; for Time (min) for 10% hydrolysis, APC / TIME TO 10% HYDROLYSIS (HOURS), APC: substrate 1 μM; for TIME TO 10% HYDROLYSIS (HOURS), APC: 10 nM enzyme
Experimental: as §1, §2

[6] = target: factor Xa (Homo sapiens, UniProt P00742); assay: Fluorogenic enzyme assay (Example 5); conditions: for Time (min) for 10% hydrolysis, Xa: enzyme 100 nM; for Time (min) for 10% hydrolysis, Xa / TIME TO 10% HYDROLYSIS (HOURS), Xa: substrate 1 μM; for TIME TO 10% HYDROLYSIS (HOURS), Xa: 10 nM enzyme
Experimental: as §1, §2

[7] = target: T2, factor VIIa (Homo sapiens, UniProt P08709); assay: Fluorogenic enzyme assay, relative hydrolysis rates (Table 8); conditions: at 100 hours; 10 nM enzyme, substrate 1 μM
T2 construct: directly measure the enzymatic activity of factor VIIa in the presence and absence of tissue factor and phospholipid
T2 sequence (P08709 213-466 limits assumed): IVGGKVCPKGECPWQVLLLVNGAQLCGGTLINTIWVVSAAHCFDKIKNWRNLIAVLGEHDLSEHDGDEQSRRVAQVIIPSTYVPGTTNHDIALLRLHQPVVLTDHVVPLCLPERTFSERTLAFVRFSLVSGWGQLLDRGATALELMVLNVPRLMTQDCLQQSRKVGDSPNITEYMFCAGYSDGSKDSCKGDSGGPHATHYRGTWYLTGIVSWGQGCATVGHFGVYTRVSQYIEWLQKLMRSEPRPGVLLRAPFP
T2 sequence (P08709 61-212 limits assumed): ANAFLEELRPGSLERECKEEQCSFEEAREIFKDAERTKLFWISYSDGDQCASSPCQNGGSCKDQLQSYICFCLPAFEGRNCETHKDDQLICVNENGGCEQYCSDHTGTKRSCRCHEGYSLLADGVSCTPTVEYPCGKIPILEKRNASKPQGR
Experimental: as §1
Factor VII assays were conducted in 20 mM HEPES, 150 mM NaCl, 5 mM CaCl2, pH 7.4 (HBS) at 37° C. The final volume for all reactions was 1.6 ml. 6-(Mes-D-Leu-Gly-Arg)amino-1-(N,N-diethyl)naphthalenesulfonamide was dissolved in DMSO to a stock concentration of 10 mM. This 10 mM stock solution of was diluted in HBS to final working concentration prior to all assays. For reactions involving tissue factor (TF) and phospholipid vesicles, recombinant human tissue factor was solubilized in either 0.04% n-dodecyl octaethylene glycol (C12 E8) or 0.8% octyl glucoside. The TF/n-dodecyl octaethylene glycol was then relipidated into PCPS or PC vesicles by a 30 minute incubation step as described by Lawson & Mann, J. Biol. Chem. 266: 11317-11327 (1991). TF/octyl glucoside was relipidated into PC or PCPS vesicles by a thirty minute incubation step followed by exhaustive dialysis. The final concentration of tissue factor used in the studies described here ranged from 2 to 50 nM depending on the nature of the experiment.
Fifteen minutes prior to the start of all reactions factor VIIa was added to the reaction system. This incubation period was followed by the addition of substrate (1 μM to 400 μM) to the mixture to start the reaction. In experiments designed to determine kinetic constants of substrate hydrolysis, 50 nM rVIIa was used when no tissue factor was present in the reaction system, while 0.5 nM rVIIa was used when tissue factor was present in the reaction system. The rate of substrate hydrolysis was measured by change in fluorescence over time, which corresponded with the generation of the 6-amino-1-(N,N-diethyl)naphthalenesulfonamide from the provided substrate. The kinetic constants of 6-(Mes-D-Leu-Gly-Arg)amino-1-(N,N-diethyl)naphthalenesulfonamide hydrolysis as a function of factor VIIa/tissue factor complex assembly are shown in Table 10.

[8] = target: factor IXa (Homo sapiens, UniProt P00740); assay: Fluorogenic enzyme assay (Example 5); parameters: key to Kinetic constants, IXa (symbol b): slow substrate hydrolysis, no kinetic constants calculated
Experimental: as §1, §2

tissue plasminogen activator (t-PA), sequence (P00750 36-562, species assumed): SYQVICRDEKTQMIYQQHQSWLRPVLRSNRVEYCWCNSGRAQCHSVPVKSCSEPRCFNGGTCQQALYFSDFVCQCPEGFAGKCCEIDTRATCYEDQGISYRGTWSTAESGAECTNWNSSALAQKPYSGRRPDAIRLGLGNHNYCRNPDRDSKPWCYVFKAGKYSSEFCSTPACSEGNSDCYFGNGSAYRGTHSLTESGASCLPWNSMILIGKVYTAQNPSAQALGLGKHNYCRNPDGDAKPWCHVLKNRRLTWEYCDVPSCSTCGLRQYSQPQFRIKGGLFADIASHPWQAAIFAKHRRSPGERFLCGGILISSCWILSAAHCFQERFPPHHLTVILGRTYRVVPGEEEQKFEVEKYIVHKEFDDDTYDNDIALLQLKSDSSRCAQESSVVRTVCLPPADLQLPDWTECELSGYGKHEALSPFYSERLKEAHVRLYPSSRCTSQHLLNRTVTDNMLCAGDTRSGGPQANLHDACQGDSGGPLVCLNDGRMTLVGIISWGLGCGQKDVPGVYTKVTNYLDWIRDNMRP
plasmin (Plm), sequence (P00747 581-810 limits assumed, species assumed): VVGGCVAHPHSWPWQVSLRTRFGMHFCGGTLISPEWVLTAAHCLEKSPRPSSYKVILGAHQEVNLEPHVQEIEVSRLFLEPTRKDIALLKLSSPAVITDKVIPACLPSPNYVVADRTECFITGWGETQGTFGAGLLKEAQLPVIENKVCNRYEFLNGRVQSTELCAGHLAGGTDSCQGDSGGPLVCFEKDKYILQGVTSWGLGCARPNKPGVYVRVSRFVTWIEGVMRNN
plasmin (Plm), sequence (P00747 97-580 limits assumed, species assumed): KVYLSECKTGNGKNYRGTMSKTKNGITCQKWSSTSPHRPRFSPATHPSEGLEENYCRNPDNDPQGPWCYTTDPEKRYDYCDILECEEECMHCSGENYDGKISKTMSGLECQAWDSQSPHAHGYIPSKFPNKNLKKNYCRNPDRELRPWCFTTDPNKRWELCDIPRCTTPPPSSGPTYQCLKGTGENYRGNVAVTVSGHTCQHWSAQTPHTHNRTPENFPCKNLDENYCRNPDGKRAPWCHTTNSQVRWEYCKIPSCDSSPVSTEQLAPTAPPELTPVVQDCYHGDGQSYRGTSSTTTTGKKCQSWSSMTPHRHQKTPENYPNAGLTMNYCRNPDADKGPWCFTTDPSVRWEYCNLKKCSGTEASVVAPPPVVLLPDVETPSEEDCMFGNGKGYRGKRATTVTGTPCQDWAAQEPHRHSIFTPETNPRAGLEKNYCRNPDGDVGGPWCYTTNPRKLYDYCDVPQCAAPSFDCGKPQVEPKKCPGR
factor IXa, sequence (P00740 227-461 limits assumed): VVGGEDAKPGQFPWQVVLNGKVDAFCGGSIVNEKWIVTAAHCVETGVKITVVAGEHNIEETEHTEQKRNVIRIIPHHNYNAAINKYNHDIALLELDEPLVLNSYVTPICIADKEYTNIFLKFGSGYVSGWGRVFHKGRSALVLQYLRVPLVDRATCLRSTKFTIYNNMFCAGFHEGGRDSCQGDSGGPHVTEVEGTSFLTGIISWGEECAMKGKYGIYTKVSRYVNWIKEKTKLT
factor IXa, sequence (P00740 47-191 limits assumed): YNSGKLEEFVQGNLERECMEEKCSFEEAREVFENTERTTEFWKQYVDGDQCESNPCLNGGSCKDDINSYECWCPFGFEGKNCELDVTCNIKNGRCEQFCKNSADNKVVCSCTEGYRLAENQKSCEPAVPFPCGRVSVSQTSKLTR
activated protein C (APC), sequence (P04070 212-461 limits assumed): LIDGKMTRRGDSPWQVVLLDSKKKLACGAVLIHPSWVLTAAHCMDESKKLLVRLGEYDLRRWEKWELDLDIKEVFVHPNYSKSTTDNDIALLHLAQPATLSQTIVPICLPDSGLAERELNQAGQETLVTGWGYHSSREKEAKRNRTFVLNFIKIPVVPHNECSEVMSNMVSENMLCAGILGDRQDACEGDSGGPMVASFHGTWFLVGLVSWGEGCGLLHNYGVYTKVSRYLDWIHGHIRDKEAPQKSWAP
activated protein C (APC), sequence (P04070 43-197 limits assumed): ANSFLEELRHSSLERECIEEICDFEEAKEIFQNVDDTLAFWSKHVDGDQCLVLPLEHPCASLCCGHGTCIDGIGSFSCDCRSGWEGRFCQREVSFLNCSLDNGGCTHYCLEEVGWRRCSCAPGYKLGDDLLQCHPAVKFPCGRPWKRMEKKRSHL
factor Xa, sequence (P00742 235-488 limits assumed): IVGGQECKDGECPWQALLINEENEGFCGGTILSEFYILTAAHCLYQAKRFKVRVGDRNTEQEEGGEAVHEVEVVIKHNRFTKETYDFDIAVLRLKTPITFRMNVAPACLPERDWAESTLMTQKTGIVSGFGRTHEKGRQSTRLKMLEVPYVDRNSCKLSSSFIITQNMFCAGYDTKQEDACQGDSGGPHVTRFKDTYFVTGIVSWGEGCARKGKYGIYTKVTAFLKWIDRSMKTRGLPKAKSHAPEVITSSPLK
factor Xa, sequence (P00742 41-179 limits assumed): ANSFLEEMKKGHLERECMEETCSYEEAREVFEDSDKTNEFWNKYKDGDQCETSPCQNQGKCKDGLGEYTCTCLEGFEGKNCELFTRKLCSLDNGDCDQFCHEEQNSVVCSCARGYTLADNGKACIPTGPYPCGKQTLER

| Time (min) for 5% hydrolysis, Plm [3] | Time (min) for 10% hydrolysis, IIa [4] | Time (min) for 10% hydrolysis, APC [5] | Km ([6]; Table 7) | kcat /Km, Xa ([6]; Table 7) | kcat, Xa ([6]; Table 7) | Time (min) for 10% hydrolysis, Xa [6] | TIME TO 10% HYDROLYSIS (HOURS), t-PA [1] | TIME TO 10% HYDROLYSIS (HOURS), u-PA [2] | TIME TO 10% HYDROLYSIS (HOURS), Plm [3] | Km ([4]; Table 9) | kcat, IIa ([4]; Table 9) | TIME TO 10% HYDROLYSIS (HOURS), APC [5] | TIME TO 10% HYDROLYSIS (HOURS), Xa [6] | Km ([6]; Table 9) | kcat /Km, Xa ([6]; Table 9) | kcat, Xa ([6]; Table 9) | SMILES | hydrolysis, t-PA (symbol N.D.) [1] | hydrolysis, VIIa (symbol d) [7] | other results |
| --- | --- | --- | --- | --- | --- | --- | --- | --- | --- | --- | --- | --- | --- | --- | --- | --- | --- | --- | --- | --- |
| 910 min | 34 min | 45 min | 114 µM | 487 M⁻¹ s⁻¹ | 0.06 s⁻¹ | 45 min |  |  |  |  |  |  |  |  |  |  | Br.CC(C)(C)NS(=O)(=O)c1cccc2cc(NC(=O)[C@H](CCCNC(=N)N)NC(=O)OCc3ccccc3)ccc12 [(N^α -Z)ArgANSNR1 R2; H; t-C4 H9] | N.D. (Less than 5% hydrolysis after 24 hrs.) |  | Time (min) for 10% hydrolysis, u-PA ([2]; enzyme 100 nM): 1260 min; Km ([4]; Table 7): 24 µM; kcat /Km, IIa ([4]; Table 7): 930 M⁻¹ s⁻¹; kcat, IIa ([4]; Table 7): 0.02 s⁻¹; Km ([5]; Table 7): 738 µM; kcat /Km, APC ([5]; Table 7): 540 M⁻¹ s⁻¹; kcat, APC ([5]; Table 7): 0.4 s⁻¹ |
| 1220 min | 76 min | 171 min | 80 µM | 625 M⁻¹ s⁻¹ | 0.05 s⁻¹ | 45 min |  |  |  |  |  |  |  |  |  |  | Br.N=C(N)NCCC[C@H](NC(=O)OCc1ccccc1)C(=O)Nc1ccc2c(S(=O)(=O)N3CCOCC3)cccc2c1 [(N^α -Z)ArgANSNR1 R2; morpholyl] | N.D. (Less than 5% hydrolysis after 24 hrs.) |  | hydrolysis, u-PA (symbol N.D.) ([2]; after 24 hrs, enzyme 100 nM): N.D. (Less than 5% hydrolysis after 24 hrs.); Hydrolysis kinetic constants, IIa (symbol b) ([4]; Table 7): b; Hydrolysis kinetic constants, APC (symbol b) ([5]; Table 7): b |
|  |  |  |  |  |  |  | 4 h | 5 h | 22 h | 44.4 µM | 0.04 s⁻¹ | 3 h | 9 h | 230 µM | 260 M⁻¹ s⁻¹ | 0.06 s⁻¹ | CCCNS(=O)(=O)c1cccc2cc(NC(=O)[C@H](CCCNC(=N)N)NC(=O)[C@H](Cc3ccccc3)NC(=O)[C@@H]3CCCN3C(=O)OC(C)(C)C)ccc12 [BocPFR-ANSNHC3 H7] |  | d (hydrolysis at 100 hours was less than 10%.) | TIME TO 10% HYDROLYSIS (HOURS), IIa ([4]; 10 nM enzyme): 4 h; kcat /Km, IIa ([4]; Table 9): 900 M⁻¹ s⁻¹; Kinetic constants, APC (symbol b) ([5]; Table 9): b; Kinetic constants, IXa (symbol b) ([8]; Table 9): b; hydrolysis, IXa (symbol d) ([8]; at 100 hours, 100 nM enzyme, substrate 1 μM): d (hydrolysis at 100 hours was less than 10%.) |
|  |  |  |  |  |  |  | 1.3 h | 1 h | 0.33 h | 7.7 µM | 11.6 s⁻¹ | 0.02 h | 0.4 h | 400 µM | 7250 M⁻¹ s⁻¹ | 2.9 s⁻¹ | Br.Br.CC(C)C[C@@H](N)C(=O)N1CCC[C@H]1C(=O)N[C@@H](CCCNC(=N)N)C(=O)Nc1ccc2c(S(=O)(=O)N3CCCCC3)cccc2c1 [D-LPR-ANSN(CH2)5] |  | d (hydrolysis at 100 hours was less than 10%.) | TIME TO 10% HYDROLYSIS (HOURS), IIa ([4]; 1 nM enzyme (footnote c)): 0.01 h; Km ([5]; Table 9): 160 µM; kcat /Km, APC ([5]; Table 9): 6880 M⁻¹ s⁻¹; kcat, APC ([5]; Table 9): 1.1 s⁻¹; TIME TO 10% HYDROLYSIS (HOURS), IXa ([8]; 100 nM enzyme, substrate 1 μM): 4 h; Km ([8]; Table 9): 343 µM; kcat, IXa ([8]; Table 9): 0.4 s⁻¹; kcat/Km, IXa ([8]; Table 9): 1170 M⁻¹ s⁻¹ |
